Measured values published in patent publication US9169247B2, “Tetrahydro-beta-carboline derivatives, synthesis and use thereof” (Southern Research Institute, priority 2009, dated 2015).
Like-named read-outs stand apart in the source and are kept apart here.

How the values were obtained:
Experiment in all cases: Growth assay (Cell Titer Glo)
Type in all cases: cell-based
NCI-H322M = details: Homo sapiens, lung
Experimental: (§1) All human tumor cell lines were obtained from ATCC and grown under standard cell culture conditions at 37° C. in a humidified atmosphere with 5% CO2. Cells were grown in RPMI 1640 supplemented with 5% fetal bovine serum 2 mM glutamine, 100 units/ml penicillin, 100 units/ml streptomycin, and 0.25 μg/ml amphotericin. Cells were harvested at 70 to 90% confluence with trypsin/EDTA and used immediately Cell count and viability was determined by Trypan blue staining followed by hemocytometry. Only cultures displaying >95% cell viability were used for experiments. HMEC were grown according to the specifications from the supplier (Lonzo).
(§2) Tissue culture microtiter 96-well plates were seeded with cells at a density of 5,000 cells/well. The plates were incubated for 18-24 hours prior to any treatment. All test compounds were solubilized in 100% DMSO and diluted with media to obtain a final DMSO concentration of 0.1%. Cell viability was measured 72 hours after treatment by the Cell Titer Glo Assay (Promega), which is a luminescent assay that is an indicator of live cells as a function of metabolic activity and ATP content. The assay was performed according to manufacturer's specifications. Luminescence was measured by a Perkin Elmer Victor® multi-label plate reader.^6
(§3) Dose response curves were analyzed using Prism™ 4 software (GraphPad) to calculate IC50 values using a four parameter logistic equation.

OVCAR-4 = details: Homo sapiens; OVCAR-4, ovarian
Experimental: as §1, §2, §3

MALME-3M = details: Homo sapiens, melanoma
Experimental: as §1, §2, §3

[1] = system: human MDA-MB-231 breast tumor cells; details: Homo sapiens
Experimental: as §1, §2, §3

U251 = details: Homo sapiens, U-251; U251, CNS
Experimental: as §1, §2, §3

DU-145 = details: Homo sapiens; DU-145, prostate
Experimental: as §1, §2, §3

HL-60(TB) = details: Homo sapiens, hematopoietic
Experimental: as §1, §2, §3

TK-10 = details: Homo sapiens; TK-10, renal
Experimental: as §1, §2, §3

SK-MEL-28 = details: Homo sapiens
Experimental: as §1, §2, §3

NCI-H23 = details: Homo sapiens; NCI-H23, lung
Experimental: as §1, §2, §3

SR = details: Homo sapiens, hematopoietic
Experimental: as §1, §2, §3

OVCAR-8 = details: Homo sapiens; OVCAR-8, ovarian
Experimental: as §1, §2, §3

SF-268 = details: Homo sapiens; SF-268, CNS
Experimental: as §1, §2, §3

T-47D = details: Homo sapiens, T47D, breast
Experimental: as §1, §2, §3

SNB-19 = details: Homo sapiens; SNB-19, CNS
Experimental: as §1, §2, §3

OVCAR-5 = details: Homo sapiens; OVCAR-5, ovarian
Experimental: as §1, §2, §3

UACC-257 = details: Homo sapiens; UACC-257, melanoma
Experimental: as §1, §2, §3

SF-539 = details: Homo sapiens; SF-539, CNS
Experimental: as §1, §2, §3

IGROVI = details: Homo sapiens; IGROVI / IGROV-1, ovarian
Experimental: as §1, §2, §3

ACHN = details: Homo sapiens, renal
Experimental: as §1, §2, §3

HCT-116 = details: Homo sapiens; HCT-116, colon
Experimental: as §1, §2, §3

RXF-393 = details: Homo sapiens; RXF-393, renal
Experimental: as §1, §2, §3

SNB-75 = details: Homo sapiens; SNB-75, CNS
Experimental: as §1, §2, §3

RPMI-8226 = details: Homo sapiens; RPMI-8226, hematopoietic
Experimental: as §1, §2, §3

UO-31 = details: Homo sapiens; UO-31, renal
Experimental: as §1, §2, §3

SN12C = details: Homo sapiens, renal
Experimental: as §1, §2, §3

HCT-15 = details: Homo sapiens; HCT-15, colon
Experimental: as §1, §2, §3

KM12 = details: Homo sapiens; KM12, colon
Experimental: as §1, §2, §3

EKVX = details: Homo sapiens, lung
Experimental: as §1, §2, §3

SW-620 = details: Homo sapiens; SW-620, colon
Experimental: as §1, §2, §3

NCI-ADR-RES = details: Homo sapiens, multi-drug resistant
Experimental: as §1, §2, §3

M14 = details: Homo sapiens; M14, melanoma
Experimental: as §1, §2, §3

MOLT-4 = details: Homo sapiens; MOLT-4, hematopoietic
Experimental: as §1, §2, §3

786-0 = details: Homo sapiens; 786-0, renal
Experimental: as §1, §2, §3

LOX IMVI = details: Homo sapiens; LOX IMVI / LOX IMV1, melanoma
Experimental: as §1, §2, §3

NCI-H460 = details: Homo sapiens; NCI-H460, lung
Experimental: as §1, §2, §3

MCF-7 = details: Homo sapiens, MCF7; MCF-7, breast
Experimental: as §1, §2, §3

CCFR-CEM = details: Homo sapiens, hematopoietic
Experimental: as §1, §2, §3

SMILES | IC50 (NCI-H322M) | IC50 (OVCAR-4) | IC50 (MALME-3M) | IC50 (U251) | IC50 (DU-145) | IC50 (HL-60(TB)) | IC50 (TK-10) | IC50 (SK-MEL-28) | IC50 (NCI-H23) | IC50 (SR) | IC50 (OVCAR-8) | IC50 (SF-268) | IC50 (T-47D) | IC50 (SNB-19) | IC50 (OVCAR-5) | IC50 (UACC-257) | IC50 (SF-539) | IC50 (IGROVI) | IC50 (ACHN) | IC50 (HCT-116) | further results
COC(=O)[C@H]1Cc2c([nH]c3ccccc23)[C@H](c2cc(OC)ccc2OC)N1C(=O)CCl [Compound 2f, Methyl (1S,3R)-1-(2,5-dimethoxyphenyl)-2-(2-chloroacetyl)-2,3,4,9-tetrahydro-1H-β-carboline-3-carboxylate] | 2460 nM | 15 nM | 132 nM | 259 nM | 232 nM | 17 nM | 78 nM | 485 nM | 13 nM | < 7 nM | 68 nM | 690 nM | 973 nM | 131 nM | 1000 nM | 5320 nM | 34 nM | 10 nM | 1.3 nM | > 10000 nM | IC50 ([1]; MDA-MB-231, 72 h, MDA-MB-231 breast, 72 h, Tables 3-5, read-out: IC50 value, μM, growth): 0.006 µM; IC50 (RXF-393): 3 nM; IC50 (SNB-75): 63 nM; IC50 (RPMI-8226): 17 nM; IC50 (UO-31): < 9 nM; IC50 (SN12C): 375 nM; IC50 (HCT-15): > 10000 nM; IC50 (KM12): 1370 nM; IC50 (EKVX): 14 nM; IC50 (SW-620): 3310 nM; IC50 (NCI-ADR-RES): 23 nM; IC50 (M14): 485 nM; IC50 (MOLT-4): 161 nM; IC50 (786-0): 32 nM; IC50 (LOX IMVI): 4 nM; IC50 (NCI-H460): > 10000 nM; IC50 (MCF-7): 3750 nM; IC50 (CCFR-CEM): < 6 nM
COC(=O)[C@H]1Cc2c([nH]c3ccccc23)[C@H](c2ccc(Cl)cc2Cl)N1C(=O)CCl [Compound 2j, (1S,3R) Methyl 1-(2,4-dichlorophenyl)-2-(2-chloroacetyl)-2,3,4,9-tetrahydro-1H-β-carboline-3-carboxylate] | > 3000 nM | 50 nM | > 3000 nM | 1880 nM | > 3000 nM | 40 nM | 200 nM | 1040 nM | > 3000 nM | 8 nM | 50 nM | 100 nM | 120 nM | 1040 nM | 490 nM | > 3000 nM | 160 nM | 20 nM | 10 nM | > 3000 nM | inhibition at 10 µM ([1]; MDA-MB-231, MDA-MB-231, 10 μM, mean +/− spread): 98%; IC50 ([1]; MDA-MB-231, MDA-MB-231, Tables 1 and 2, read-out: Growth Inhibition IC50, μM (95% CI)): 0.07 µM; IC50 (RXF-393): 15 nM; IC50 (SNB-75): 100 nM; IC50 (RPMI-8226): 80 nM; IC50 (UO-31): 5 nM; IC50 (SN12C): > 3000 nM; IC50 (HCT-15): > 3000 nM; IC50 (KM12): 630 nM; IC50 (EKVX): 20 nM; IC50 (SW-620): 2750 nM; IC50 (NCI-ADR-RES): 20 nM; IC50 (M14): 2260 nM; IC50 (MOLT-4): 130 nM; IC50 (786-0): 20 nM; IC50 (LOX IMVI): < 1 nM; IC50 (NCI-H460): < 1 nM; IC50 (MCF-7): > 3000 nM; IC50 (CCFR-CEM): 10 nM
